From PMC9763021, “Comprehensive Assessment of Biomolecular Interactions of Morpholine-Based Mixed Ligand Cu(II) and Zn(II) Complexes of 2,2′-Bipyridine as Potential Anticancer and SARS-CoV-2 Agents: A Synergistic Experimental and Structure-Based Virtual Screening” (Bioinorganic Chemistry and Applications, 2022)

How the values were obtained:
[1] = tested on: A549 human lung cancer cell line; assay: MTT cell viability assay, A549; assay type: cell-based
Procedure: (§1) All substances towards the A549, HepG2, MCF-7, and NHDF cell lines were evaluated by using the MTT approach. The collected data were utilized to compute the IC50 value and contrast it with the gold standard cisplatin anticancer medication.
(§2) Cellular viability or metabolic properties can be measured using the MTT assay, which is a powerful and credible method for anticancer properties. The anticancer efficacy of all test compounds was investigated by the MTT assay against A549, HepG2, MCF-7, and NHDF cell lines. As per the colorimetric approach, the IC50 findings of all test substances were evaluated as the % of cell viability/growth inhibition. […] Nevertheless, complex (1a) has the highest cytotoxic potential among others. The acquired findings were in the subsequent sequence as follows: (cisplatin) > (1a) > (2a) > (HL) (Figure 16 and Table 10). The cytotoxic effectiveness is dependent upon the DNA-binding modalities, the structure-activity relationship, as well as drug concentrations and incubation period exposure. […] As per Tweedy's chelation theory, charge equilibration happens as a result of coordination between the ligands and metal ions, which minimises the polarity of the metal ions and causes the capability of the test complexes to pass via the cell membrane lipid layer. Thus, it put off the synthesis of cell wall/protein/nucleic acids. Additionally, the results of DNA-binding tests using these complexes, including gel electrophoresis, UV-visible spectral titration, hydrodynamic, emission, and CV findings, were in good agreement with the findings of cytotoxicity. The expressions (46) and (47) were supported to measure the % of growth inhibition and cell viability. […]
(§3) A549, HepG2 MCF-7, and NHDF are represented as human lung cancer cell line, liver cancer cell line, breast cancer cell line, and normal human dermal fibroblasts cell line.(45) % Cytotoxiciy=1− Mean absorbance of Sample at 595 nm/Mean absorbance of Controlat 595 nm ×100, (46) Cellviability%=100−Cytotoxiciy%.

[2] = tested on: HepG2 liver cancer cell line; assay: MTT cell viability assay, HepG2; assay type: cell-based, human
Procedure: as §1, §2, §3

[3] = tested on: MCF-7 breast cancer cell line; assay: MTT cell viability assay, MCF-7; assay type: cell-based, human
Procedure: as §1, §2, §3

[4] = tested on: NHDF normal human dermal fibroblasts cell line; assay: MTT cell viability assay, NHDF; assay type: cell-based; conditions: 72 hours exposure, normal cells
Procedure: as §1, §2, §3

SMILES: Oc1ccccc1N=Cc1ccc(N2CCOCC2)cc1 [(HL), 2-(4-morpholinobenzylideneamino)phenol]
- IC50 ([1]; Homo sapiens, A549, 72 hours exposure): 126 ± 6.3 µM
- IC50 ([2]; Homo sapiens, HepG2, 72 hours exposure): 108 ± 5.4 µM
- IC50 ([3]; Homo sapiens, MCF7, 72 hours exposure): 105 ± 5.3 µM
- IC50 ([4]; Homo sapiens, NHDF): 209 ± 10.4 µM

SMILES: [Cu+2].[O-]c1ccccc1N=Cc1ccc(N2CCOCC2)cc1.[O-]c1ccccc1N=Cc1ccc(N2CCOCC2)cc1.c1ccc(-c2ccccn2)nc1 [(1a), [Cu(L)2(bpy)]]
- IC50 ([1]; 72 hours exposure): 30.8 ± 1.5 µM
- IC50 ([2]; 72 hours exposure): 33.1 ± 1.7 µM
- IC50 ([3]; 72 hours exposure): 32.1 ± 1.6 µM
- IC50 [4]: 73.6 ± 3.7 µM
